Tested on: XBP1s-luc 293 LUC
Assay: cellular PD assay, XBP1s-LUC reporter (Example 903)
Type: cell-based
Settings: Table 1; read-out: XBP1s-luc 293 LUC (IC50)
How it was run: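 Cellular IRE1α pathway activity was quantified from the luciferase signal of an XBP1-Luc reporter, where the luciferase fusion is in frame and expressed only from the spliced XBP1 transcript.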

Row | Structure (SMILES) | IC50
1 | Cc1ccc2c(NS(=O)(=O)CC(C)(C)C)cccc2c1Oc1ncccc1-c1ccnc(N[C@H]2CCCNC2)n1 [Example 139, (S)-2,2-Dimethyl-N-(6-methyl-5-((3-(2-(piperidin-3-ylamino)pyrimidin-4-yl)pyridin-2-yl)oxy)naphthalen-1-yl)propane-1-sulfonamide] | 241 nM
2 | Cc1ccc2c(NS(=O)(=O)C3CCCCC3)cccc2c1Oc1ncccc1-c1ccnc(N[C@H]2CCCNC2)n1 [Example 140, (S)—N-(6-Methyl-5-((3-(2-(piperidin-3-ylamino)pyrimidin-4-yl)pyridin-2-yl)oxy)naphthalen-1-yl)cyclohexanesulfonamide] | 177 nM
3 | Cc1ccc2c(NS(=O)(=O)CC3CCCO3)cccc2c1Oc1ncccc1-c1ccnc(N[C@H]2CCCNC2)n1 (stereo partly drawn) [Example 141, N-(6-Methyl-5-((3-(2-((S)-piperidin-3-ylamino)pyrimidin-4-yl)pyridin-2-yl)oxy)naphthalen-1-yl)-1-(tetrahydrofuran-2-yl)methanesulfonamide] | 457 nM
4 | Cc1ccc2c(NS(=O)(=O)Cc3ccccc3C(F)(F)F)cccc2c1Oc1ncccc1-c1ccnc(N[C@H]2CCCNC2)n1 [Example 142, (S)—N-(6-Methyl-5-((3-(2-(piperidin-3-ylamino)pyrimidin-4-yl)pyridin-2-yl)oxy)naphthalen-1-yl)-1-(2-(trifluoromethyl)phenyl)methanesulfonamide] | 8 nM
5 | Cc1ccc2c(NS(=O)(=O)Cc3ccc(Cl)cc3)cccc2c1Oc1ncccc1-c1ccnc(N[C@H]2CCCNC2)n1 [Example 143, (S)-1-(4-Chlorophenyl)-N-(6-methyl-5-((3-(2-(piperidin-3-ylamino)pyrimidin-4-yl)pyridin-2-yl)oxy)naphthalen-1-yl)methanesulfonamide] | 17 nM
6 | Cc1ccc2c(NS(=O)(=O)Cc3cccc(Cl)c3)cccc2c1Oc1ncccc1-c1ccnc(N[C@H]2CCCNC2)n1 [Example 144, (S)-1-(3-Chlorophenyl)-N-(6-methyl-5-((3-(2-(piperidin-3-ylamino)pyrimidin-4-yl)pyridin-2-yl)oxy)naphthalen-1-yl)methanesulfonamide] | 25 nM
7 | Cc1ccc2c(NS(=O)(=O)Cc3ccccc3F)cccc2c1Oc1ncccc1-c1ccnc(N[C@H]2CCCNC2)n1 [Example 145, (S)-1-(2-Fluorophenyl)-N-(6-methyl-5-((3-(2-(piperidin-3-ylamino)pyrimidin-4-yl)pyridin-2-yl)oxy)naphthalen-1-yl)methanesulfonamide] | 15 nM
8 | Cc1ccc2c(NS(=O)(=O)Cc3ccccc3C#N)cccc2c1Oc1ncccc1-c1ccnc(N[C@H]2CCCNC2)n1 [Example 146, (S)-1-(2-Cyanophenyl)-N-(6-methyl-5-((3-(2-(piperidin-3-ylamino)pyrimidin-4-yl)pyridin-2-yl)oxy)naphthalen-1-yl)methanesulfonamide] | 18 nM
9 | C=CS(=O)(=O)Nc1cccc2c(Oc3ncccc3-c3ccnc(N[C@H]4CCCNC4)n3)c(C)ccc12 [Example 147, (S)—N-(6-Methyl-5-((3-(2-(piperidin-3-ylamino)pyrimidin-4-yl)pyridin-2-yl)oxy)naphthalen-1-yl)ethenesulfonamide] | 139 nM
10 | Cc1ccc2c(NS(=O)(=O)Cc3ccccc3)cccc2c1Oc1ncccc1-c1ccnc(N[C@@H]2CNC[C@H](F)C2)n1 [Example 148, N-(5-((3-(2-(((3S,5R)-5-Fluoropiperidin-3-yl)amino)pyrimidin-4-yl)pyridin-2-yl)oxy)-6-methylnaphthalen-1-yl)-1-phenylmethanesulfonamide] | 211 nM
11 | Cc1ccc2c(NS(=O)(=O)c3cccnc3)cccc2c1Oc1ncccc1-c1ccnc(N[C@H]2CCCNC2)n1 [Example 149, (S)—N-(6-Methyl-5-((3-(2-(piperidin-3-ylamino)pyrimidin-4-yl)pyridin-2-yl)oxy)naphthalen-1-yl)pyridine-3-sulfonamide] | 494 nM
12 | Cc1ccc2c(NS(=O)(=O)Cc3ccc(F)cc3)cccc2c1Oc1ncccc1-c1ccnc(N[C@H]2CCCNC2)n1 [Example 150, (S)-1-(4-Fluorophenyl)-N-(6-methyl-5-((3-(2-(piperidin-3-ylamino)pyrimidin-4-yl)pyridin-2-yl)oxy)naphthalen-1-yl)methanesulfonamide] | 25 nM
13 | Cc1ccc2c(NS(=O)(=O)CCl)cccc2c1Oc1ncccc1-c1ccnc(N[C@H]2CCCNC2)n1 [Example 151, (S)-1-Chloro-N-(6-methyl-5-((3-(2-(piperidin-3-ylamino)pyrimidin-4-yl)pyridin-2-yl)oxy)naphthalen-1-yl)methanesulfonamide] | 140 nM
14 | Cc1ccc2c(NS(=O)(=O)Cc3ccccc3)cccc2c1Oc1ncccc1-c1ccnc(N[C@H]2CC[C@H](N)CC2)n1 [Example 152, N-(5-((3-(2-(((trans)-4-Aminocyclohexyl)amino)pyrimidin-4-yl)pyridin-2-yl)oxy)-6-methylnaphthalen-1-yl)-1-phenylmethanesulfonamide] | 241 nM
15 | CCOC(=O)Nc1cccc2c(Oc3ncccc3-c3ccnc(N[C@H]4CCCNC4)n3)c(C)ccc12 [Example 153, (S)-Ethyl (6-methyl-5-((3-(2-(piperidin-3-ylamino)pyrimidin-4-yl)pyridin-2-yl)oxy)naphthalen-1-yl)carbamate] | 143 nM
16 | Cc1ccc2c(NC(=O)C3(C)CC3)cccc2c1Oc1ncccc1-c1ccnc(N[C@H]2CCCNC2)n1 [Example 154, (S)-1-Methyl-N-(6-methyl-5-((3-(2-(piperidin-3-ylamino)pyrimidin-4-yl)pyridin-2-yl)oxy)naphthalen-1-yl)cyclopropane-1-carboxamide] | 239 nM
17 | Cc1ccc2c(NC(=O)C3(F)CC3)cccc2c1Oc1ncccc1-c1ccnc(N[C@H]2CCCNC2)n1 [Example 155, (S)-1-Fluoro-N-(6-methyl-5-((3-(2-(piperidin-3-ylamino)pyrimidin-4-yl)pyridin-2-yl)oxy)naphthalen-1-yl)cyclopropane-1-carboxamide] | 380 nM
18 | Cc1ccc2c(NS(=O)(=O)Cc3cscn3)cccc2c1Oc1ncccc1-c1ccnc(N[C@H]2CCCNC2)n1 [Example 156, (S)—N-(6-Methyl-5-((3-(2-(piperidin-3-ylamino)pyrimidin-4-yl)pyridin-2-yl)oxy)naphthalen-1-yl)-1-(thiazol-4-yl)methanesulfonamide] | 157 nM
19 | Cc1ccc2c(NS(=O)(=O)Cc3ccc(F)cc3F)cccc2c1Oc1ncccc1-c1ccnc(N[C@H]2CCCNC2)n1 [Example 157, (S)-1-(2,4-Difluorophenyl)-N-(6-methyl-5-((3-(2-(piperidin-3-ylamino)pyrimidin-4-yl)pyridin-2-yl)oxy)naphthalen-1-yl)methanesulfonamide] | 8 nM
20 | CCCS(=O)(=O)Nc1cccc2c(Oc3ncccc3-c3ccnc(N[C@H]4CC[C@H](N)CC4)n3)c(C)ccc12 [Example 158, N-(5-((3-(2-(((trans)-4-Aminocyclohexyl)amino)pyrimidin-4-yl)pyridin-2-yl)oxy)-6-methylnaphthalen-1-yl)propane-1-sulfonamide] | 471 nM
21 | Cc1ccc2c(NS(=O)(=O)CF)cccc2c1Oc1ncccc1-c1ccnc(N[C@H]2CCCNC2)n1 [Example 159, (S)-1-Fluoro-N-(6-methyl-5-(3-(2-(piperidin-3-ylamino)pyrimidin-4-yl)pyridin-2-yloxy)naphthalen-1-yl)methanesulfonamide] | 174 nM
22 | Cc1ccc2c(NS(=O)(=O)Cc3ccc(C(F)F)cc3)cccc2c1Oc1ncccc1-c1ccnc(N[C@H]2CCCNC2)n1 [Example 160, (S)-1-(4-(Difluoromethyl)phenyl)-N-(6-methyl-5-((3-(2-(piperidin-3-ylamino)pyrimidin-4-yl)pyridin-2-yl)oxy)naphthalen-1-yl)methanesulfonamide] | 13 nM
23 | CO[C@H]1CNC[C@@H](Nc2nccc(-c3cccnc3Oc3c(C)ccc4c(NS(=O)(=O)Cc5ccccc5)cccc34)n2)C1 [Example 161, N-(5-((3-(2-(((3S,5R)-5-Methoxypiperidin-3-yl)amino)pyrimidin-4-yl)pyridin-2-yl)oxy)-6-methylnaphthalen-1-yl)-1-phenylmethanesulfonamide] | 46 nM
24 | Cc1ccc2c(NS(=O)(=O)Cc3ccccc3)cccc2c1Oc1ncccc1-c1ccnc(NC2CNCCC2F)n1 (centres unmarked) [Example 162, N-(5-((3-(2-((4-Fluoropiperidin-3-yl)amino)pyrimidin-4-yl)pyridin-2-yl)oxy)-6-methylnaphthalen-1-yl)-1-phenylmethanesulfonamide] | 67 nM
25 | Cc1cc(NS(=O)(=O)Cc2ccccc2)c2ccccc2c1Oc1ncccc1-c1ccnc(N[C@H]2CCCNC2)n1 [Example 163, (S)—N-(3-Methyl-4-((3-(2-(piperidin-3-ylamino)pyrimidin-4-yl)pyridin-2-yl)oxy)naphthalen-1-yl)-1-phenylmethanesulfonamide] | 47 nM
26 | CCCS(=O)(=O)Nc1cc(C)c(Oc2ncccc2-c2ccnc(N[C@H]3CCCNC3)n2)c2ccccc12 [Example 164, (S)—N-(3-Methyl-4-((3-(2-(piperidin-3-ylamino)pyrimidin-4-yl)pyridin-2-yl)oxy)naphthalen-1-yl)propane-1-sulfonamide] | 147 nM
27 | CCCS(=O)(=O)Nc1cccc2c(Oc3ncccc3-c3ccnc(N[C@@H]4CNC[C@@H](F)C4)n3)c(C)ccc12 [Example 165, N-(5-((3-(2-(((3S,5S)-5-Fluoropiperidin-3-yl)amino)pyrimidin-4-yl)pyridin-2-yl)oxy)-6-methylnaphthalen-1-yl)propane-1-sulfonamide] | 164 nM
28 | Cc1ccc2c(NS(=O)(=O)Cc3ccccc3CO)cccc2c1Oc1ncccc1-c1ccnc(N[C@H]2CCCNC2)n1 [Example 166, (S)-1-(2-(Hydroxymethyl)phenyl)-N-(6-methyl-5-((3-(2-(piperidin-3-ylamino)pyrimidin-4-yl)pyridin-2-yl)oxy)naphthalen-1-yl)methanesulfonamide] | 118 nM
29 | Cc1ccc2c(NS(=O)(=O)Cc3ccncc3)cccc2c1Oc1ncccc1-c1ccnc(N[C@H]2CCCNC2)n1 [Example 167, (S)—N-(6-Methyl-5-((3-(2-(piperidin-3-ylamino)pyrimidin-4-yl)pyridin-2-yl)oxy)naphthalen-1-yl)-1-(pyridin-4-yl)methanesulfonamide] | 19 nM

Source: patent US10968203B2, “Pyrimidinyl-pyridyloxy-naphthyl compounds and methods of treating IRE1-related diseases and disorders” (Genentech, Inc., priority 2017, dated 2021)
